From PMC3823043 (Journal of Cellular and Molecular Medicine, 2008) come the findings set out here.

SMILES strings stand for the structures.

This test addresses delta opioid receptor (DOR), murine, wild-type (Mus musculus, UniProt P32300). The test is described as follows: [3H]naltrindole radioligand binding. The note with it: labelled compound; HEK293 DOR clone; no affinity constant printed.

Sequence of delta opioid receptor (DOR), murine, wild-type (P32300 whole entry): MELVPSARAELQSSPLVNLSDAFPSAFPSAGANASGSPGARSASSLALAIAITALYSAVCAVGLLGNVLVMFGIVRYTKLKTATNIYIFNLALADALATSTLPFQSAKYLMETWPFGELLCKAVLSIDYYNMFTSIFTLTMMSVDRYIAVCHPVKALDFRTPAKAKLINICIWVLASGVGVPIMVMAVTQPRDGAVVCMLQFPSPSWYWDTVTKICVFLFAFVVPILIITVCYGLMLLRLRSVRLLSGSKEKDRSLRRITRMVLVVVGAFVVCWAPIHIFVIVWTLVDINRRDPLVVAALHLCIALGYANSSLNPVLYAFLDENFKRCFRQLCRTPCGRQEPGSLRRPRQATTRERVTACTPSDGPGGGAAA

As for `Oc1ccc2c3c1O[C@H]1c4[nH]c5ccccc5c4C[C@@]4(O)[C@@H](C2)N(CC2CC2)CC[C@]314` [[3H]naltrindole], the “[3H]naltrindole radioligand binding” value was “Receptor expression levels in DOR clones was assessed by means of [^3H]Naltrindole binding”.
